In one assay the test system is C. albicans. Briefly: Disk diffusion assay, C. albicans. In kind it is cell-based. To be noted: aromatic compounds. On the procedure:
(§1) The following disk diffusion assays were performed with example compounds described above to assess the ability of compounds to inhibit growth of microorganism. A compound that inhibits its target enzyme may perform poorly for a number of reasons, including low solubility in water or slow rate of transport across a microbial membrane.
On the technique in general: Agar diffusion results depend on both activity and mobility in agar.

The subject of another assay is C. albicans cells. The experiment in a line: C. albicans cell survival after exposure to inactivator. In kind it is cell-based, Candida albicans. To be noted: 1 h exposure; for cell survival rate, in words: several concentrations, survival after 48 h. On the procedure:
According to some embodiments, vinyl sulfone compounds contain both polar and, in some cases, charged functional groups that would make cellular uptake more challenging. However, to test the possibility that these compounds could inhibit the growth of C. albicans, two inactivators were selected for examination. […] The cells were plated and their survival rates were measured after 48 h relative to a control growth in the absence of inactivator.

Assay [1] addresses T1, ASADH from Candida albicans (CalASADH) (Candida albicans, UniProt Q5ALM0).
T1 construct: His tag; made in house
T1 sequence (Q5ALM0 1-365): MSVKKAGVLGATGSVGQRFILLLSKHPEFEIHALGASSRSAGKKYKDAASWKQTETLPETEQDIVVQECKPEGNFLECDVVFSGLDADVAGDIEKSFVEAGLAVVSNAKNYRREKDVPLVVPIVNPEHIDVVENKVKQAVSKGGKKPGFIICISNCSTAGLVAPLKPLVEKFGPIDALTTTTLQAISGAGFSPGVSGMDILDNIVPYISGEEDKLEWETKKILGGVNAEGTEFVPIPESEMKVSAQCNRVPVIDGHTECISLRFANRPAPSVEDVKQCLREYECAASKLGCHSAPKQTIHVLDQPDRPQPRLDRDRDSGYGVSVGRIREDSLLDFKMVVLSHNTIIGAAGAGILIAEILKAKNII
The experiment in a line: Time-dependent inactivation of CalASADH (pre-incubation, residual activity). The class given is biochemical. The protocol:
Aryl vinyl sulfones can be reasonably potent inhibitors of CalASADH, each inhibitor was then tested to determine if it would function as an enzyme inactivator. […] In most cases the residual enzyme activity, measured following a subsequent 20-fold dilution into an assay mixture, decreased to less than 5% of the control rate after incubation with low micromolar levels of these inactivators for 10 min or less. To determine the rate of inactivation the concentration of each vinyl sulfone in this pre-incubation mixture was then varied, centered around their initial measured Ki values. The rate of activity loss observed in each incubation reaction (kobs) was plotted against the inhibitor concentration to determine the inactivation rate (kinact) for that compound and the concentration that produces half-maximal inactivation (Ki). […] The proposed product of the reaction of the active site nucleophile (Cys-156) with this inactivator predicts key interactions of the p-nitro group with Arg-18 and Ser-187, and the protonation of the covalent intermediate by His-256. […] Reaction of this inactivator with the active site nucleophile (Cys-156) predicts keys interactions between its carboxyl group and several backbone amide nitrogens that would shift this adduct further from the active site base (His-256). […]

Another assay deals with K pneumoniae. Briefly: Disk diffusion assay, K pneumoniae. In kind it is cell-based. The note with it: aromatic compounds. On the procedure: as §1
Another assay deals with S. aureus. The experiment in a line: Disk diffusion assay, S. aureus. In kind it is cell-based. The note with it: aromatic compounds. On the procedure:
as §1

Here are results for four compounds from patent US20240180158A1, “COMPOUNDS HAVING SELECTIVE INACTIVATION ACTIVITY” (University of North Carolina at Wilmington, priority 2021, published 2024).

`CS(=O)(=O)/C=C/c1ccc2ccccc2n1` [2-MSV-quinoline, 2-(S-methylsulfonylvinyl)quinoline]: the “disk diffusion, C. albicans” value in the assay with C. albicans was “weak”.

For `CS(=O)(=O)/C=C/c1ccc(C(=O)O)cc1` [4-(methylsulfonylvinyl)benzoic acid], the cell survival entry in the assay with C. albicans cells (25 μM, survival after 48 h relative to control) is recorded as “less than 75%”. For the same compound, the “cell survival rate, in words” value in the assay on C. albicans cells was “some decrease in cell survival rate”. The “ASADH inactivation, in words” value in assay [1] is “very good ASADH inactivator”.

As to `O=S(=O)(/C=C/c1ccncc1)c1ccccc1` [4-(phenylsulfonylvinyl)pyridine], in the assay on C. albicans cells, the “cell survival rate, in words” value is “some decrease in cell survival rate”. Besides, in assay [1], the “ASADH inactivation, in words” value is on record as “moderate inactivator”.

On to `CS(=O)(=O)/C=C/c1ccncc1` [4-MSV-pyridine, 4-(methylsulfonylvinyl)pyridine], for which the “disk diffusion, K pneumoniae” value with K pneumoniae is “medium”. Moreover, the “disk diffusion, C. albicans” value with C. albicans is “medium”. For the same compound, in the assay with S. aureus, the “disk diffusion, S. aureus” value is listed as “medium”.
